In patent US20100093811A1 (priority 2007, published 2010):
pIC50: −log10 of the molar value. Where a name gives a salt, the structure may show the parent alone. Read-outs that look alike come from different tables or passages of the source.

Legend:
wild-type HIV-1 protease = wild-type HIV-1 protease (Human immunodeficiency virus type 1 group M subtype B, UniProt P04585); experiment: Assay for inhibition of microbial expressed HIV protease; format: biochemical
Method in brief: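 Inhibition taken from HPLC (C18) product peak areas after phosphoric acid quench. Reaction: 440 micromolar Val-Ser-Gln-Asn-(betanapthyl)Ala-Pro-Ile-Val peptide, 5 pM E. coli-made protease, 1 h at 30° C, following 30 min room-temperature inhibitor preincubation in pH 5.5 acetate/NaCl/BSA buffer.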

[1] = tested on: acute HIV infection of T-lymphoid cells; experiment: Assay for inhibition of HIV replication (spread assay); format: cell-based, HIV-1; conditions: Human immunodeficiency virus 1, T-lymphoid; read-out: Spread - IC95
Protocol: • Assay for Inhibition of HIV Replication
Assays for the inhibition of acute HIV infection of T-lymphoid cells were conducted in accordance with Vacca, J. P. et al., Proc. Natl. Acad. Sci. USA 1994, 91: 4096.

[2] = wild-type HIV-1 protease expressed in E. coli, peptide substrate, pH 5.5, read-out: Enzyme Inhibition - IC50

Question: `COC(=O)N[C@H](C(=O)N[C@H](C)CCC[C@@H](CO)N(CCC(C)C)S(=O)(=O)c1ccc(CO)cc1)C(c1ccccc1)c1ccccc1` [Example J5, N-{(1R,5S)-6-hydroxy-5-[{[4-(hydroxymethyl)phenyl]sulfonyl}(3-methylbutyl)amino]-1-methylhexyl}-Nα-(methoxycarbonyl)-β-phenyl-L-phenylalaninamide] was tested. Which pIC50 (wild-type HIV-1 protease; [2]) did it give?
Answer: The pIC50 was 9.54.

Question: And the IC95 [1]?
Answer: Its IC95 is 192 nM.

Question: With `COC(=O)N[C@H](C(=O)N[C@H](CCC[C@@H](CO)N(CCC(C)C)S(=O)(=O)c1ccc(CO)cc1)C(C)(C)C)C(c1ccccc1)c1ccccc1` [Example J6, N-{(1R,5S)-1-tert-butyl-6-hydroxy-5-[{[4-(hydroxymethyl)phenyl]sulfonyl}(3-methylbutyl)amino]hexyl}-Nα-(methoxycarbonyl)-β-pbenyl-L-phenylalaninamide] as the molecule, how does the pIC50 (wild-type HIV-1 protease; [2]) read?
Answer: The pIC50 was 9.01.

Question: And the IC95 [1]?
Answer: The IC95 was 327 nM.

Question: With `COC(=O)N[C@H](C(=O)N[C@@H](CCC[C@@H](CO)N(CCC(C)C)S(=O)(=O)c1ccc(CO)cc1)C(F)(F)F)C(c1ccccc1)c1ccccc1` [Example J7, N-[(1S,5S)-6-hydroxy-5-[{[4-(hydroxymethyl)phenyl]sulfonyl}(3-methylbutyl)amino]-1-(trifluoromethyl)hexyl]-Nα-(methoxycarbonyl)-β-phenyl-L-phenylalaninamide] as the molecule, how does the pIC50 (wild-type HIV-1 protease; [2]) read?
Answer: The pIC50 was 9.21.

Question: What about the IC95 [1] of the same molecule?
Answer: Its IC95 is 359 nM.

Question: With `COC(=O)N[C@H](C(=O)N[C@H](CCC[C@@H](CO)N(CCC(C)C)S(=O)(=O)c1ccc(CO)cc1)C1CC1)C(c1ccccc1)c1ccccc1` [Example J8, N-{(1R,5S)-1-cyclopropyl-6-hydroxy-5-[{[4-(hydroxymethyl)phenyl]sulfonyl}(3-methylbutyl)amino]hexyl}-Nα-(methoxycarbonyl)-β-phenyl-L-phenylalaninamide] as the molecule, how does the pIC50 (wild-type HIV-1 protease; [2]) read?
Answer: Its pIC50 is 10.82.

Question: And the IC95 [1]?
Answer: Its IC95 is 10 nM.

Question: How did the pIC50 (wild-type HIV-1 protease; [2]) turn out when `COC(=O)N[C@H](C(=O)N[C@H](CCC[C@@H](CO)N(CCC(C)C)S(=O)(=O)c1ccc(CO)cc1)C(C)C)C(c1ccccc1)c1ccccc1` [Example J9, N-{(1R,5S)-6-hydroxy-5-[{[4-(hydroxymethyl)phenyl]sulfonyl}(3-methylbutyl)amino]-1-isopropylhexyl}-Nα-(methoxycarbonyl)-β-phenyl-L-phenylalaninamide] was run?
Answer: Its pIC50 is 10.16.

Question: What about the IC95 [1] of the same molecule?
Answer: Its IC95 is 23 nM.

Question: `C=C[C@@H](CCC[C@@H](CO)N(CCC(C)C)S(=O)(=O)c1ccc(CO)cc1)NC(=O)[C@@H](NC(=O)OC)C(c1ccccc1)c1ccccc1` [Example J10, N-{(1R,5S)-6-hydroxy-5-[{[4-(hydroxymethyl)phenyl]sulfonyl}(3-methylbutyl)amino]-1-vinylhexyl}-Nα-(methoxycarbonyl)-β-phenyl-L-phenylalaninamide] was tested. Which pIC50 (wild-type HIV-1 protease; [2]) did it give?
Answer: The pIC50 was 11.30.

Question: And the IC95 [1]?
Answer: Its IC95 is 4 nM.

Question: With `C=C[C@H](CCC[C@@H](CO)N(CCC(C)C)S(=O)(=O)c1ccc(CO)cc1)NC(=O)[C@@H](NC(=O)OC)C(c1ccccc1)c1ccccc1` [Example J11, N-{(1S,5S)-6-hydroxy-5-[{[4-(hydroxymethyl)phenyl]sulfonyl}(3-metbylbutyl)amino]-1-vinylhexyl}-Nα-(methoxycarbonyl)-β-phenyl-L-phenylalaninamide] as the molecule, how does the pIC50 (wild-type HIV-1 protease; [2]) read?
Answer: The pIC50 was 9.73.

Question: What about the IC95 [1] of the same molecule?
Answer: The IC95 was 107 nM.

Question: `COC(=O)N[C@H](C(=O)N[C@H](CCC[C@@H](CO)N(CCC(C)C)S(=O)(=O)c1ccc(CO)cc1)C(F)(F)C(F)(F)F)C(c1ccccc1)c1ccccc1` [Example J12, N-[(1R,5S)-6-hydroxy-5-[{[4-(hydroxymethyl)phenyl]sulfonyl}(3-methylbutyl)amino]-1-(pentafluoroethyl)hexyl]-Nα-(methoxycarbonyl)-β-phenyl-L-phenylalaninamide] was tested. Which pIC50 (wild-type HIV-1 protease; [2]) did it give?
Answer: Its pIC50 is 10.44.

Question: And the IC95 [1]?
Answer: Its IC95 is 43 nM.

Question: What does the source list for `C#C[C@@H](CCC[C@@H](CO)N(CCC(C)C)S(=O)(=O)c1ccc(CO)cc1)NC(=O)[C@@H](NC(=O)OC)C(c1ccccc1)c1ccccc1` [Example J13, N-{(1R,5S)-1-ethynyl-6-hydroxy-5-[{[4-(hydroxymethyl)phenyl]sulfonyl}(3-methylbutyl)amino]hexyl}-Nα-(methoxycarbonyl)-β-phenyl-L-phenylalaninamide]?
Answer: pIC50 (wild-type HIV-1 protease; [2]): 11.00; IC95 [1]: 6 nM

Question: Which results are given for `COC(=O)N[C@@H](Cc1ccccc1Cl)C(=O)N[C@H](CCC[C@@H](CO)N(CCC(C)C)S(=O)(=O)c1ccc(CO)cc1)C1CC1` [Example J14, 2-chloro-N-{(1R,5S)-1-cyclopropyl-6-hydroxy-5-[{[4-(hydroxymethyl)phenyl]sulfonyl}(3-methylbutyl)amino]hexyl}-Nα-(methoxycarbonyl)-L-phenylalaninamide]?
Answer: pIC50 (wild-type HIV-1 protease; [2]): 9.74; IC95 [1]: 63 nM

Question: How did the pIC50 (wild-type HIV-1 protease; [2]) turn out when `COC(=O)N[C@@H](Cc1ccccc1Cl)C(=O)N[C@H](CCC[C@@H](CO)N(CCC(C)C)S(=O)(=O)c1ccc([C@H](C)O)cc1)C1CC1` [Example J15, 2-chloro-N-{(1R,5S)-1-cyclopropyl-6-hydroxy-5-[({4-[(1S)-1-hydroxyethyl]phenyl}sulfonyl)(3-methylbutyl)amino]hexyl}-Nα-(methoxycarbonyl)-L-pbenylalaninamide] was run?
Answer: Its pIC50 is 9.43.

Question: What about the IC95 [1] of the same molecule?
Answer: The IC95 was 42 nM.

Question: How did the pIC50 (wild-type HIV-1 protease; [2]) turn out when `COC(=O)N[C@H](C(=O)N[C@H](CCC[C@@H](CO)N(CCC(C)C)S(=O)(=O)c1ccc(CO)cc1)C1CC1)C(c1ccc(F)cc1)c1ccc(F)cc1` [Example J16, N-{(1R,55)-1-cyclopropyl-6-hydroxy-5-[{[4-(hydroxymethyl)phenyl]sulfonyl}(3-methylbutyl)amino]hexyl}-4-fluoro-β-(4-fluorophenyl)-Nα-(methoxycarbonyl)-L-phenylalaninamide] was run?
Answer: Its pIC50 is 11.00.

Question: And the IC95 [1]?
Answer: Its IC95 is 25 nM.

Question: `CC(C)CCN([C@H](CO)CCC[C@@H](NC(=O)[C@@H](N)C(c1ccc(F)cc1)c1ccc(F)cc1)C1CC1)S(=O)(=O)c1ccc(CO)cc1` [Example J17, N-{(1R,5S)-1-cyclopropyl-6-hydroxy-5-[{[4-(hydroxymethyl)phenyl]sulfonyl}(3-methylbutyl)amino]hexyl}-4-fluoro-β-(4-fluorophenyl)-L-phenylalaninamide hydrochloride] was tested. Which pIC50 (wild-type HIV-1 protease) did it give?
Answer: Its pIC50 is 11.00.

Question: What about the IC95 [1] of the same molecule?
Answer: The IC95 was 6 nM.

Question: With `CC(C)CCN([C@H](CO)CCC[C@@H](NC(=O)[C@@H](N)C(c1ccc(F)cc1)c1ccc(F)cc1)C1CC1)S(=O)(=O)c1ccc([C@H](C)O)cc1` [Example J18, N-{(1R,5S)-1-cyclopropyl-6-hydroxy-5-[({4-[(1S)-1-hydroxyethyl]phenyl}sulfonyl)(3-methylbutyl)amino]hexyl}-4-fluoro-β-(4-fluorophenyl)-L-phenylalaninamide hydrochloride] as the molecule, how does the pIC50 (wild-type HIV-1 protease) read?
Answer: Its pIC50 is 11.00.

Question: And the IC95 [1]?
Answer: The IC95 was 8 nM.

Question: What does the source list for `CC[C@@H](CCC[C@@H](CO)N(CC(C)C)S(=O)(=O)c1ccc(CO)cc1)NC(=O)[C@@H](NC(=O)OC)C(c1ccccc1)c1ccccc1` [Example J19, N-{(1S,5S)-1-ethyl-6-hydroxy-5-[{[4-(hydroxymethyl)phenyl]sulfonyl}(isobutyl)amino]hexyl]-Nα-(methoxycarbonyl)-β-phenyl-L-phenylalaninamide]?
Answer: pIC50 (wild-type HIV-1 protease; [2]): 10.47; IC95 [1]: 11 nM

Question: `CC[C@@H](CCC[C@@H](CO)N(CC(C)C)S(=O)(=O)c1ccc(CO)cc1)NC(=O)[C@@H](NC(=O)OC)C(c1ccc(F)cc1)c1ccc(F)cc1` [Example J20, N-{(1S,5S)-1-ethyl-6-hydroxy-5-[{[4-(hydroxymethyl)phenyl]sulfonyl}(isobutyl)amino]hexyl}-4-fluoro-β-(4-fluorophenyl)-Nα-(methoxycarbonyl)-L-phenylalaninamide] was tested. Which pIC50 (wild-type HIV-1 protease; [2]) did it give?
Answer: The pIC50 was 10.70.

Question: What about the IC95 [1] of the same molecule?
Answer: The IC95 was 50 nM.
